Key:
[1] = system: CD69 surface expression in primary human B cells; test: Inhibition of CD69 surface expression in primary human B cells; assay type: cell-based; details: B-cell; 1 h pre-incubation, anti-human IgM stimulation 19 hr
Experimental: Primary human B cells (CD20+, purified by negative selection) were obtained from StemCell Technologies. Prior to experiment, the cells were thawed and washed two times with RPMI growth media supplemented with 10% FBS. The cells were seeded into 24 well plate at a density of 4×10^5 cells/per a well in a total volume of 500 uL. 6 hr after plating, serial dilutions of NW-1-96 were added. Control wells received DMSO only (0.1%). After 1 h pre-incubation with compound, the cells were stimulated for 19 hr with goat anti-human IgM F(ab′)2 (10 μg/mL; ThermoFisher). After stimulation, the cells were fixed by addition of paraformaldehyde to a final concentration of 4% and incubated for 20 min at room temperature. Fixed cells were collected into Eppendorf tubes, centrifuged at 1,000×g and washed three times with 50 mM Tris pH8.0, 100 mM NaCl. After washes, the cells were re-suspended in 100 uL of 50 mM Tris pH8.0, 100 mM NaCl, 0.1% BSA supplemented with 5 ug/mL of FITC-conjugated anti-CD69 antibody (ThermoFisher) and incubated at room temperature for 2 hr. The cells were next washed 3 times with 10 volumes of 50 mM Tris pH8.0, 100 mM NaCl, 0.1% BSA and re-suspended in 150 ul of the same buffer. […] CD69 staining was detected on Synergy Neo2 fluorescent plate reader: […].

TXK = molecular target: T1, TXK (Homo sapiens, UniProt P42681); test: Caliper-based kinase assay, off-target TXK; assay type: biochemical; details: Cys-481 homologous kinase panel
T1 sequence (P42681 1-527): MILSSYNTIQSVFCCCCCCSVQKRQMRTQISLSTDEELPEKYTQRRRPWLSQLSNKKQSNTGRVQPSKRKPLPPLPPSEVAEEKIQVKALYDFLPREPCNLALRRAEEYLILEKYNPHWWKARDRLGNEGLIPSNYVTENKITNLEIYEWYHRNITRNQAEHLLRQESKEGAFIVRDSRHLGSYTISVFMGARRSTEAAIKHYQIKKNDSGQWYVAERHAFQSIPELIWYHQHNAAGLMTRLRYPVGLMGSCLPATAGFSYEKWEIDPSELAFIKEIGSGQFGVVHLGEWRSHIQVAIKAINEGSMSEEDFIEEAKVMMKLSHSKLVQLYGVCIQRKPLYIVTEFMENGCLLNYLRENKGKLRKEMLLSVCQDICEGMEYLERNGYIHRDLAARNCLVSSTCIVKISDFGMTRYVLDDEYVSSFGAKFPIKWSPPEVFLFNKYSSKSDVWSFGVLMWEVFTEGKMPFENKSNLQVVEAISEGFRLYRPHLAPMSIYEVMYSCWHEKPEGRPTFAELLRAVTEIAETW
Source text: A Caliper-based kinase assay (Caliper Life Sciences, Hopkinton, Mass.) was used to measure inhibition of kinase activity of compounds of the present disclosure. […]

Mice PK study = assay type: in vivo; details: plasma, CD-1 mouse, po, 10 mg/kg; for half-life: read-out: t ½ (converted)
Experimental: The pharmacokinetics of compounds were evaluated in CD-1 mouse via Intravenous and Oral Administration. The IV dose was administered as a slow bolus in the Jugular vein, and oral doses were administered by gavage. The formulation for IV dosing is 5% DMSO in 20% HPBCD in water, and the PO formulation is 2.5% DMSO, 10% EtOH, 20% Cremphor EL, 67.5% D5W. The PK time point for the IV arm was 5, 15, 30 min, 1, 2, 4, 6, 8, 12, 24 hours post dose, and for PO arm was 15, 30 min, 1, 2, 4, 6, 8, 12, 24 hours post dose. Approximately 0.03 mL blood was collected at each time point. Blood of each sample was transferred into plastic micro centrifuge tubes containing EDTA-K2 and plasma was collected within 15 min by centrifugation at 4000 g for 5 minutes in a 4° C. centrifuge. Plasma samples were stored in polypropylene tubes. The samples were stored in a freezer at −75±15° C. prior to analysis. Concentrations of compounds in the plasma samples were analyzed using a LC-MS/MS method. WinNonlin (Phoenix™, version 6.1) or other similar software was used for pharmacokinetic calculations. The following pharmacokinetic parameters were calculated, whenever possible from the plasma concentration versus time data: IV administration: C0, CL, Vd, T1/2, AUCinf, AUClast, MRT, Number of Points for Regression; PO administration: Cmax, Tmax, T1/2, AUCinf, AUClast, F %, Number of Points for Regression. The pharmacokinetic data was described using descriptive statistics such as mean, standard deviation. Additional pharmacokinetic or statistical analysis was performed at the discretion of the contributing scientist, and was documented in the data summary. For comparison purpose, the PK results of oral dosing of po, 25 mg/kg of Acalbrutinib, a FDA approved BTK inhibitor, were obtained using the same methods and shown in the Table below.

WT BTK [2] = molecular target: T2, WT BTK (Homo sapiens, UniProt Q06187); test: Caliper-based kinase assay, WT BTK; assay type: biochemical; details: 0.5 nM enzyme, ATP 16 μM, room temperature 3 h; read-out: WT BTK IC50 (nM) (irreversible inhibition)
T2 sequence (Q06187 whole entry): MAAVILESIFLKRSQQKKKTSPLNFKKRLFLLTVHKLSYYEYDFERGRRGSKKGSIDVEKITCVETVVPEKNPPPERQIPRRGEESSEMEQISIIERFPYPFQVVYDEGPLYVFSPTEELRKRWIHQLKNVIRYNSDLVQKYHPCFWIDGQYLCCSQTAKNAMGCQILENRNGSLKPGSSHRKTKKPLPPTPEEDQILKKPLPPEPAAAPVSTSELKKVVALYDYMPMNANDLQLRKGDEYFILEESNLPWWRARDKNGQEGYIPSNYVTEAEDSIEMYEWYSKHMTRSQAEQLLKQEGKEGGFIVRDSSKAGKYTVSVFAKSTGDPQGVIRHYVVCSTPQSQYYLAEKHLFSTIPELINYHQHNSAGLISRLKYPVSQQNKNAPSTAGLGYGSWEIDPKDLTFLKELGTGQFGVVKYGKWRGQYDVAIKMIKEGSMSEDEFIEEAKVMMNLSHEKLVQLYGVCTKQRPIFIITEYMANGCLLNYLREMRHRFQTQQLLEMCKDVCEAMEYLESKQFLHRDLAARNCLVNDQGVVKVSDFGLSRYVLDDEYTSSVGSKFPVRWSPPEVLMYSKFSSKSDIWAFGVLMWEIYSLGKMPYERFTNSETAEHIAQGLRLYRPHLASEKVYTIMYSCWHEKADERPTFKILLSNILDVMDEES
Experimental: A Caliper-based kinase assay (Caliper Life Sciences, Hopkinton, Mass.) was used to measure inhibition of WT and […] Btk kinase activity of a compound of the present disclosure. […] The reaction was then terminated with EDTA, final concentration 20 mM and the phosphorylated reaction product was quantified on a Caliper Desktop Profiler (Caliper LabChip 3000).

BTK = BTK (Homo sapiens, UniProt Q06187); test: Caliper-based kinase assay, Cys-containing kinase panel: BTK; assay type: biochemical; details: for IC50: Cys-481 homologous kinase panel
Chain of BTK (Q06187 whole entry): as above
Source text: A Caliper-based kinase assay (Caliper Life Sciences, Hopkinton, Mass.) was used to measure inhibition of kinase activity of compounds of the present disclosure.

WT BTK [3] = molecular target: T2, WT BTK; test: In vitro dialysis assay (irreversibility assay), WT BTK; assay type: biochemical; details: reversible or irreversible/covalent inhibition after 24 h dialysis
Procedure, shortened: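 Compound-BTK complex was dialyzed 24 hr against […] (cumulative factor >160,000×). Residual activity was then […] and 1 mM substrate peptide and compared with non-dialyzed samples. Buffer: 100 mM HEPES pH 7.5, 5 mM MgCl2, 1 mM DTT, BSA, Triton X-100.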

IC50 [1]	IC50 (TXK)	AUC (Mice PK study)	half-life (Mice PK study)	IC50 (WT BTK [2])	IC50 (BTK)	Conclusion (WT BTK) (WT BTK [3])	Selectivity among kinases that contain a Cys homologous to Cys-481 in BTK (BTK; BTK versus BMX, TEC, TXK, BLK, HER4, EGFR, HER2)	SMILES
109 nM	0.48 nM	–	–	–	–	–	–	CC(C)(/C=C(\C#N)C(=O)N1CCC[C@@H](n2nc(-c3ccc(Oc4ccccc4)cc3F)c3c(N)ncnc32)C1)N1CCN(C2COC2)CC1 [PRN-1008, reference compound]
–	> 1000 nM	11600 ng·h/mL	1 h	0.08 nM	0.1 nM	Irreversible/covalent inhibition	–	C=CC(=O)Nc1cc(Nc2nc(-c3ccnc(N4CCn5c(cc6c5CC(C)(C)C6)C4=O)c3CO)cn(C)c2=O)ccc1N1CCN(C2CCOCC2)C[C@H]1C(F)(F)F [Example 48-S, N-(5-[[6-(2-[4,4-dimethyl-9-oxo-1,10-diazatricyclo[6.4.0.0^[2,6]]dodeca-2(6),7-dien-10-yl]-3-(hydroxymethyl)pyridin-4-yl)-4-methyl-3-oxopyrazin-2-yl]amino]-2-[(2S)-4-(oxan-4-yl)-2-(trifluoromethyl)piperazin-1-yl]phenyl)prop-2-enamide]
9.4 nM	> 1000 nM	74800 ng·h/mL	1.7 h	0.43 nM	0.25 nM	Irreversible/covalent inhibition	excellent selectivity	C=CC(=O)Nc1cc(Nc2nc(-c3ccnc(N4CCc5c(sc6c5CCCC6)C4=O)c3CO)cn(C)c2=O)ccc1N1CCN(C2CCOCC2)C[C@H]1C(F)(F)F [Example 55-S, N-[5-([6-[3-(hydroxymethyl)-2-[6-oxo-8-thia-5-azatricyclo[7.4.0.0^[2,7]]trideca-1(9), 2(7)-dien-5-yl]pyridin-4-yl]-4-methyl-3-oxopyrazin-2-yl]amino)-2-[(2S)-4-(oxan-4-yl)-2-(trifluoromethyl)piperazin-1-yl]phenyl]prop-2-enamide]

Source: patent US20220363689A1, “INHIBITOR OF BTK AND MUTANTS THEREOF” (Newave Pharmaceutical Inc., priority 2019, published 2022)
